A short description of data set [1]: Solubilization in aqueous hydroxypropyl-cyclodextrin solution. The class given is physicochemical. The protocol:
(§1) 100 milligrams of oleandrin was weighed and placed in a 5 mL scintillation tube. 1.5 mL of absolute ethanol was added to the tube and shaken until the oleandrin was completely dissolved. 5 grams of pyrogen free hydroxypropyl-β-cyclodextrin (sold by, Sigma-Aldrich, Inc., St. Louis, Mo., USA) was weighed on an analytical scale and placed in a graduated cylinder. Water was added with shaking until the volume reached 90 ml. The above ethanolic solution of oleandrin was added to the aqueous solution containing hydroxypropyl-β-cyclodextrin with stirring. A clear solution was obtained. Water was added to the clear solution to make the total volume to 100 mL. Thus, 1 mg oleandrin was effectively solubilized in 1 ml of 5% solution of hydroxypropyl-β-cyclodextrin. The solution was sterile-filtered through a 0.22 μm filter. The suspension was frozen below −40° C. and lyophilized. The lyophilized cake was reconstituted with sterile water for injection prior to further use.
The previous experiment was repeated using a 2% solution of hydroxypropyl-β-cyclodextrin prepared as in Example 1. 100 mg of oleandrin was dissolved in 100 mL of water containing 2.5 grams of hydroxypropyl-β-cyclodextrin. The solution was sterile-filtered through a 0.22 μm filter. The solution was frozen below −40° C. and lyophilized. The lyophilized cake was reconstituted with sterile water for injection prior to further use.
The experiment in example 1 was repeated using a 100 mg of Odoroside-A instead of oleandrin. 100 mg of Odoroside-A was dissolved in 5 grams of hydroxypropyl-β-cyclodextrin in 100 mL of water. The solution was sterile-filtered through a 0.22 μm filter. The solution was frozen below −40° C. and lyophilized. The lyophilized cake was reconstituted with sterile water for injection prior to further use.
as §1, with “5mL” for “5 mL”, “1-2” for “1.5”, “2.5” for “5”, “hydroxypropyl-γ-cyclodextrin” for “hydroxypropyl-β-cyclodextrin”, “2.5%” for “5%”, “hydroxypropyl-γ-cyclodextrin.” for “hydroxypropyl-β-cyclodextrin.”
as §1, with “of Proscillaridin-A” for “of oleandrin”, “tube. 1-2” for “tube. 1.5”, “the Proscillaridin-A” for “the oleandrin”, “dissolved. 2” for “dissolved. 5”, “mg Proscillaridin-A” for “mg oleandrin”, “of 2%” for “of 5%”
The previous experiment was repeated using a 5% solution of hydroxypropyl-β-cyclodextrin prepared as in Example 5. […]

The test system of data set [2] is androgen-independent human prostate cancer cell lines. The note with it: in vitro; cited from earlier work.
In data set [3] the test system is primary cultures of tumor cells from patients and a human cell line panel. The note with it: cited from earlier work.
The conditions of data set [4]: oral tablet containing 0.25 mg, humans; cited from earlier work.
For data set [5], the system named is various cancer cell lines. Conditions: cited from earlier work.
Data set [6] deals with different human malignant cell lines. Conditions: non-toxic concentrations; cited from earlier work.
The conditions of data set [7]: rapidly dissolving γ-cyclodextrin complex (molar ratio 1:4), oral, dogs; cited from earlier work.
A further data set has as its system human cancer cells. Conditions: cited from earlier work.
The test system of data set [8] is FGF-2 release from DU145 cells. The note with it: 0.1 ng/mL; cited from earlier work.
Another data set relates to NF-κB. Conditions: cited from earlier work.
In a further data set the test system is AP-1. The note with it: induced by TNF and other agents; cited from earlier work.
The nature of data set [9]: Oleandrin stirred and shaken with water. In kind it is physicochemical. Conditions: 10 mg stirred and shaken with 10 ml of water, after 20 minutes. The method, then:
10 milligrams (mg) of oleandrin was stirred and shaken with 10 ml of water in a test tube.

The conditions of data set [10]: in vivo; cited from earlier work.
The test system of data set [11] is FGF-2 release from PC3 cells. Conditions: 0.1 ng/mL; cited from earlier work.
The mark [12] stands for this setting: in 100 mL of water containing 5 grams of hydroxypropyl-β-cyclodextrin.
[13] abbreviates: in 1 ml of 2.5% solution of hydroxypropyl-γ-cyclodextrin.
Where [14] appears, read: in 50 ml of 9.8% solution of hydroxypropyl-β-cyclodextrin, 70-80 degree centigrade.

In turn, `CO[C@@H]1C[C@H](O[C@H]2CC[C@@]3(C)[C@H](CC[C@@H]4[C@@H]3CC[C@]3(C)[C@@H](C5=CC(=O)OC5)CC[C@]43O)C2)O[C@H](C)[C@@H]1O` [Odoroside-A, Odoroside A] came in with an amount dissolved in data set [1] (setting [12]) of 100 mg.

On to `C[C@@H]1O[C@@H](O[C@H]2C[C@@H](O)[C@]3(CO)[C@H]4[C@H](O)C[C@]5(C)[C@@H](C6=CC(=O)OC6)CC[C@]5(O)[C@@H]4CC[C@]3(O)C2)[C@H](O)[C@H](O)[C@H]1O` [Ouabain], for which the induction of apoptosis result in [2] is “induce apoptosis”.

With `C[C@@H]1O[C@@H](O[C@@H]2C=C3CC[C@@H]4[C@H](CC[C@]5(C)[C@@H](c6ccc(=O)oc6)CC[C@]45O)[C@@]3(C)CC2)[C@H](O)[C@H](O)[C@H]1O` [Proscillaridin-A, Proscillaridin A, reference compound], the “selective toxicity solid vs hematological tumor cells” value in data set [3] is reported as “no selective toxicity”. The amount effectively solubilized in [1] (in 1 ml of 2% solution of hydroxypropyl-β-cyclodextrin) is 1 mg; in data set [1] (setting [13]), 1 mg; in data set [1] (setting [14]), 100 mg. The amount dissolved in data set [1] (setting [12]) was 100 mg. For the same compound, the bioavailability in data set [4] is reported as 20-30%.

Turning to `CO[C@@H]1C[C@H](O[C@H]2CC[C@@]3(C)[C@H](CC[C@@]45O[C@@]46CC[C@H](C4=CC(=O)OC4)[C@@]6(C)CC[C@H]35)C2)O[C@H](C)[C@@H]1O` [adynerin], the anti-cancer activity result in data set [5] is listed as “significant anti-cancer activities”.

With `C[C@H]1O[C@@H](O[C@H]2[C@@H](O)C[C@H](O[C@H]3[C@@H](O)C[C@H](O[C@H]4CC[C@@]5(C)[C@H](CC[C@@H]6[C@@H]5CC[C@]5(C)[C@@H](C7=CC(=O)OC7)CC[C@]65O)C4)O[C@@H]3C)O[C@@H]2C)C[C@H](O)[C@@H]1O` [digitoxin], in data set [3], the “selective toxicity solid vs hematological tumor cells” value is “selective toxicity against solid tumor cells”. The growth and apoptosis result in data set [6] was “inhibits growth and induce apoptosis”.

For the compound `C[C@H]1O[C@@H](O[C@H]2[C@@H](O)C[C@H](O[C@H]3[C@@H](O)C[C@H](O[C@H]4CC[C@@]5(C)[C@H](CC[C@@H]6[C@@H]5C[C@@H](O)[C@]5(C)[C@@H](C7=CC(=O)OC7)CC[C@]65O)C4)O[C@@H]3C)O[C@@H]2C)C[C@H](O)[C@@H]1O` [digoxin], the “selective toxicity solid vs hematological tumor cells” value in data set [3] is “selective toxicity against solid tumor cells”. For the same compound, the induction of apoptosis result in [2] is reported as “induce apoptosis”. Besides, the growth and apoptosis entry in [6] was “inhibits growth and induce apoptosis”. In data set [7], the “increase of plasma levels” value is listed as “approximately 5.4 fold”.

Turning to `CO[C@H]1C[C@H](O[C@H]2CC[C@@]3(C)[C@H](CC[C@@H]4[C@@H]3CC[C@]3(C)[C@@H](C5=CC(=O)OC5)[C@@H](OC(C)=O)C[C@]43O)C2)O[C@@H](C)[C@@H]1O` [oleandrin, 16b-acetoxy-3b-[(2,6 dideoxy-3-0-methyl-a2-L-arabino-hexopyranosyl)oxy]-14-hydroxy-5β, 14β-card-20(22)-enolide], in data set [5], the anti-cancer activity result is given as “significant anti-cancer activities”. Moreover, the cell killing result in the data set on human cancer cells is “able to induce cell killing”. Moreover, the amount effectively solubilized in [1] (setting [13]) came to 1 mg; in data set [1] (in 1 ml of 5% solution of hydroxypropyl-β-cyclodextrin), 1 mg; in [1] (setting [14]) it was 100 mg. The compound also registered an amount dissolved in data set [1] (in 100 mL of water containing 2.5 grams of hydroxypropyl-β-cyclodextrin (called 2% solution)) of 100 mg. Also, the “inhibition of FGF-2 release” value in [8] is given as 49.9%; in data set [11] it was 45.7%. In addition, the induction of apoptosis entry in data set [2] is “induce apoptosis”. In addition, in the data set with NF-κB, the “TNF-induced activation of NF-κB” value was “blocked”. Moreover, the AP-1 activation entry in the data set on AP-1 was “blocked”. Besides, the dissolution in water result in data set [9] is reported as “Appreciable quantities of compound remained out of solution”. Further, the “time of elimination from the body” value in [10] is reported as “one to two”.

Take `C[C@H]1[C@H](C)CC[C@]2(C(=O)O)CC[C@]3(C)C(=CC[C@@H]4[C@@]5(C)CC[C@H](O)C(C)(C)[C@@H]5CC[C@]43C)[C@H]12` [ursolic acid]: the anti-cancer activity entry in [5] was “significant anti-cancer activities”.
